Data on 24 molecules can be found in patent publication US9073821B2, “Hydroxamic acid derivative” (priority 2010, dated 2015).

Each structure is given as a SMILES string.

The first experiment addresses Pseudomonas aeruginosa LpxC enzyme (Pseudomonas aeruginosa (strain ATCC 15692 / DSM 22644 / CIP 104116 / JCM 14847 / LMG 12228 / 1C / PRS 101 / PAO1), UniProt P47205). The experiment is described as follows: biochemical. The class given is biochemical. The note with it: class symbols A/B/C by IC50; Table 3; read-out: Enzyme inhibitory activity (inhibitory activity on Pseudomonas aeruginosa LpxC enzyme).
As to `CNC(=O)C(C(=O)NO)N(C)C(=O)c1ccc(C#Cc2ccc(CN3CC(OC)C3)cc2)cc1` (stereo not drawn) [Compound 505, N-hydroxy-2-[{[4-({4-[(3-methoxyazetidin-1-yl)methyl]phenyl}ethynyl)phenyl]carbonyl}(methyl)amino]-N′-methylpropanediamide], the IC50 was under 10 nM. Same read-out and setting: the figure for `CNC(=O)C(C(=O)NO)N(C)C(=O)c1ccc(C#Cc2ccc(N3CCC(N4CCOCC4)CC3)cc2)cc1` (stereo not drawn) [Compound 496, N-hydroxy-N′-methyl-2-(methyl {[4-({4-[4-(morpholin-4-yl)piperidin-1-yl]phenyl}ethynyl)phenyl]carbonyl}amino)propanediamide] is under 10 nM.

Turning to `CCN1Cc2cc(C#Cc3ccc(C(=O)N(C)C(C(=O)NC)C(=O)NO)cc3)ccc2[C@H]1C` (stereo partly drawn) [Compound 516, 2-{[(4-{[(1R)-2-ethyl-1-methyl-2,3-dihydro-1H-isoindol-5-yl]ethynyl}phenyl)carbonyl](methyl)amino}-N-hydroxy-N′-methylpropanediamide], the IC50 lay within 10 to 100 nM. Same read-out and setting: next, `CNC(=O)C(C(=O)NO)N(C)C(=O)c1ccc(C#CC#Cc2cnn(C)c2)cc1` (stereo not drawn) [Compound 511, N-hydroxy-N′-methyl-2-[methyl({4-[4-(1-methyl-1H-pyrazol-4-yl)buta-1,3-diyn-1-yl]phenyl}carbonyl)amino]propanediamide]: under 10 nM.

Staying with this experiment, now noted: inhibitory activity on Pseudomonas aeruginosa LpxC enzyme, class symbols A/B/C; read-out: Enzyme inhibitory activity.
As to `CNC(=O)C(C(=O)NO)N(C)C(=O)c1ccc(-c2ccc(OCCCn3ccnc3)cc2)cc1` (stereo not drawn) [Compound 96, N-hydroxy-2-[({4′-[3-(1H-imidazol-1-yl)propoxy]biphenyl-4-yl}carbonyl)(methyl)amino]-N′-methylpropanediamide], the IC50 is under 10 nM.

Consider `CNC(=O)[C@](C)(C(=O)NO)N(C)C(=O)c1ccc(-c2ccccc2)cc1` [Compound 343, (2R)-2-[(biphenyl-4-ylcarbonyl)(methyl)amino]-N-hydroxy-N′,2-dimethylpropanediamide], for which the IC50 was over 100 nM.

For the molecule `CNC(=O)C(C(=O)NO)N(C)C(=O)c1ccc(-c2cc(F)c(F)c(F)c2)cc1` (stereo not drawn) [Compound 220, N-hydroxy-N′-methyl-2-{methyl[(3′,4′,5′-trifluorobiphenyl-4-yl)carbonyl]amino}propanediamide], the IC50 was in the range of 10 to 100 nM. Still for that read-out and setting: the figure for `Cn1nccc1CNC(=O)C(NC(=O)c1ccc(-c2ccc(OCCO)cc2)cc1)C(=O)NO` (stereo not drawn) [Compound 146, N-hydroxy-2-({[4′-(2-hydroxyethoxy)biphenyl-4-yl]carbonyl}amino)-N′-[(1-methyl-1H-pyrazol-5-yl)methyl]propanediamide] is under 10 nM; for `CNC(=O)C(C(=O)NO)N(C(=O)c1ccc(-c2ccc(OCCCN3CCOCC3)cc2)cc1)C1CC1` (stereo not drawn) [Compound 198, 2-[cyclopropyl({4′-[3-(morpholin-4-yl)propoxy]biphenyl-4-yl}carbonyl)amino]-N-hydroxy-N′-methylpropanediamide] it is under 10 nM; for `CNC(=O)C(C(=O)NO)N(C)C(=O)c1ccc(-c2ccc(NCCO)cc2)cc1` (stereo not drawn) [Compound 179, N-hydroxy-2-[({4′-[(2-hydroxyethyl)amino]biphenyl-4-yl}carbonyl)(methyl)amino]-N′-methylpropanediamide] it is under 10 nM. The same measure, in the same setting: next, `CNC(=O)C(C(=O)NO)N(C)C(=O)c1ccc(C#Cc2ccc(CNC3CCC3)cc2)cc1` (stereo not drawn) [Compound 316, 2-[{[4-({4-[(cyclobutylamino)methyl]phenyl}ethynyl)phenyl]carbonyl}(methyl)amino]-N-hydroxy-N′-methylpropanediamide]: 10 to 100 nM; `CNC(=O)C(C(=O)NO)N(C)C(=O)c1ccc(-c2ccc(OCCCN3CCN(c4ccccc4)CC3)cc2)cc1` (stereo not drawn) [Compound 84, N-hydroxy-N′-methyl-2-[methyl({4′-[3-(4-phenylpiperazin-1-yl)propoxy]biphenyl-4-yl}carbonyl)amino]propanediamide]: under 10 nM.

For `CNC(=O)C(C(=O)NO)N(C)C(=O)c1ccc(-c2ccc3c(c2)cc(CO)n3C)cc1` (stereo not drawn) [Compound 41, N-hydroxy-2-[{4-[2-(hydroxymethyl)-1-methyl-1H-indol-5-yl]benzoyl}(methyl)amino]-N′-methylpropanediamide], the IC50 is under 10 nM.

For the molecule `CNC(=O)C(C(=O)NO)N(CC(F)F)C(=O)c1ccc(-c2ccccc2)cc1` (stereo not drawn) [Compound 174, 2-[(biphenyl-4-ylcarbonyl)(2,2-difluoroethyl)amino]-N-hydroxy-N′-methylpropanediamide], the IC50 was under 10 nM. Take `O=C(NC(C(=O)NO)C(=O)NO)c1ccc(-c2ccc(OCCO)cc2)cc1` [Compound 148, N,N′-dihydroxy-2-({[4′-(2-hydroxyethoxy)biphenyl-4-yl]carbonyl}amino)propanediamide]: the IC50 fell in the range of 10 to 100 nM. Take `O=C(NC(C(=O)NO)C(=O)NCC1CNCCO1)c1ccc(-c2ccc(OCCO)cc2)cc1` (stereo not drawn) [Compound 162, N-hydroxy-2-({[4′-(2-hydroxyethoxy)biphenyl-4-yl]carbonyl}amino)-N′-(morpholin-2-ylmethyl)propanediamide]: the IC50 was 10 to 100 nM.

`CNC(=O)C(C(=O)NO)N(C)C(=O)c1ccc(-c2cccc(C)n2)cc1` (stereo not drawn) [Compound 295, N-hydroxy-N′-methyl-2-(methyl {[4-(6-methylpyridin-2-yl)phenyl]carbonyl}amino)propanediamide]: the IC50 was over 100 nM. Same read-out and setting: next, `CNC(=O)C(C(=O)NO)N(C)C(=O)c1ccc(-c2ccc(C#CCO)cc2)cc1` (stereo not drawn) [Compound 389, N-hydroxy-2-[{[4′-(3-hydroxyprop-1-yn-1-yl)biphenyl-4-yl]carbonyl}(methyl)amino]-N′-methylpropanediamide]: under 10 nM; `CNC(=O)C(C(=O)NO)N(C)C(=O)c1cnc(-c2ccc3c(c2)OCO3)c(F)c1` (stereo not drawn) [Compound 458, 2-[{[6-(1,3-benzodioxol-5-yl)-5-fluoropyridin-3-yl]carbonyl}(methyl)amino]-N-hydroxy-N′-methylpropanediamide]: 10 to 100 nM; `CNC(=O)C(C(=O)NO)N(C)C(=O)c1ccc(-c2ccc(OCc3ccc(CN4CCOCC4)cc3)cc2)cc1` (stereo not drawn) [Compound 91, N-hydroxy-N′-methyl-2-{methyl[(4′-{[4-(morpholin-4-ylmethyl)benzyl]oxy}biphenyl-4-yl)carbonyl]amino}propanediamide]: under 10 nM. The same measure, in the same setting: next, `CNC(=O)C(C(=O)NO)N(C)C(=O)c1ccc(-c2cc(Cl)cc(Cl)c2)cc1` (stereo not drawn) [Compound 222, 2-{[(3′,5′-dichlorobiphenyl-4-yl)carbonyl](methyl)amino}-N-hydroxy-N′-methylpropanediamide]: 10 to 100 nM; `O=C(NC(C(=O)NO)C(=O)NCc1ccccn1)c1ccc(-c2ccc(OCCO)cc2)cc1` (stereo not drawn) [Compound 130, N-hydroxy-2-({[4′-(2-hydroxyethoxy)biphenyl-4-yl]carbonyl}amino)-N′-(pyridin-2-ylmethyl)propanediamide]: under 10 nM; `CNC(=O)C(C(=O)NO)N(C)C(=O)c1ccc(-c2ccc3c(c2)cc(C)n3C)cc1` (stereo not drawn) [Compound 57, 2-{[4-(1,2-dimethyl-1H-indol-5-yl)benzoyl](methyl)amino}-N-hydroxy-N′-methylpropanediamide]: under 10 nM.

Regarding `CNC(=O)C(C(=O)NO)N(C)C(=O)c1ccc(-c2ccc3c(c2)cc(CN2CCOCC2)n3C)cc1` (stereo not drawn) [Compound 46, N-hydroxy-N′-methyl-2-(methyl {4-[1-methyl-2-(morpholin-4-ylmethyl)-1H-indol-5-yl]benzoyl}amino)propanediamide], the IC50 was in the range of 10 to 100 nM.
